Data published in patent US20250011288A1 (BRISTOL-MYERS SQUIBB COMPANY, priority 2021, published 2025).

Biological target: T1, human RXFP1 (Homo sapiens, UniProt Q9HBX9)
T1 construct: expressed in transfected cells
T1 sequence (Q9HBX9 1-757): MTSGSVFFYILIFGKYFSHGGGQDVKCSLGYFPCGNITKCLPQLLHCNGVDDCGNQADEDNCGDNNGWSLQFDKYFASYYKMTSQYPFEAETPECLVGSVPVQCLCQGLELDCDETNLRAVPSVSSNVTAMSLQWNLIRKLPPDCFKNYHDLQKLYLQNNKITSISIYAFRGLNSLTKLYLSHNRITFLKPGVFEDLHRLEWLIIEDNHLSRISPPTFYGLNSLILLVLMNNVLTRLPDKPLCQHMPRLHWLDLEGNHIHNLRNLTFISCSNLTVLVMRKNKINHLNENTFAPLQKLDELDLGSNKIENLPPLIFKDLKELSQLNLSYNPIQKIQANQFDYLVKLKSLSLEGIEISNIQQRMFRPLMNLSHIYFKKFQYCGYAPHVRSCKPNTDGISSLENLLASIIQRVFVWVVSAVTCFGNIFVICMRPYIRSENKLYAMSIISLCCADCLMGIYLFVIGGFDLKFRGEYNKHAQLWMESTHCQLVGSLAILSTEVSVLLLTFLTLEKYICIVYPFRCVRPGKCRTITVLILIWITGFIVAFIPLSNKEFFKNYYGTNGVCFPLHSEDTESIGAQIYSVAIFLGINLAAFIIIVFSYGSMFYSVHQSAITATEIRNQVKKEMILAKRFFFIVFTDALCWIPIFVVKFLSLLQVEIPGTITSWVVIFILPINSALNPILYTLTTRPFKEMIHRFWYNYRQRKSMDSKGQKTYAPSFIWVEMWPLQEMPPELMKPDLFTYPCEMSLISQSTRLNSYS
Assay: human RXFP1 (hRXFP1) HEK293 cAMP assay (HTRF)
Format: cell-based
Settings: HEK293 cells stably expressing human RXFP1, 30 min at room temperature
Procedure, shortened: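 HEK293 cells stably expressing human RXFP1 (1500 cells/well) in HBSS/20 mM HEPES/0.05% BSA/0.5 mM IBMX, treated with compound (0.010 nM–50 µM final, 2% DMSO) for 30 min at room temperature. Intracellular cAMP read by HTRF; potency from 4-parameter logistic fit of cAMP versus concentration.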

| Compound | EC50 |
| --- | --- |
| O=C(O)c1ccc(F)c(-c2cnc(OCCO)c(C(=O)N[C@H]3[C@@H](C(=O)Nc4ccc(F)c(C(F)(F)F)c4)[C@H]4CC[C@@H]3/C4=C\C(F)(F)F)c2)c1 [Example 40, 4-fluoro-3-(5-(((1R,2R,3S,4R,Z)-3-((4-fluoro-3-(trifluoromethyl)phenyl)carbamoyl)-7-(2,2,2-trifluoroethylidene)bicyclo[2.2.1]heptan-2-yl)carbamoyl)-6-(2-hydroxyethoxy)pyridin-3-yl)benzoic acid] | 39 nM |
| COc1ncc(-c2cc(C(=O)O)ccc2F)nc1C(=O)N[C@H]1[C@@H](C(=O)Nc2ccc(F)c(C(F)(F)F)c2)[C@H]2CC[C@@H]1/C2=C\c1cnoc1 [Example 26, 4-fluoro-3-(6-(((1R,2R,3S,4R,Z)-3-((4-fluoro-3-(trifluoromethyl)phenyl)carbamoyl)-7-(isoxazol-4-ylmethylene)bicyclo[2.2.1]heptan-2-yl)carbamoyl)-5-methoxypyrazin-2-yl)benzoic acid] | 76 nM |
| COc1ncc(-c2cc(C(=O)O)ccc2F)cc1C(=O)N[C@@H]1C2CCC(/C2=C/C(F)(F)F)[C@@H]1C(=O)Nc1ccc(F)c(C(F)(F)F)c1 (stereo partly drawn) [Example 28, 4-Fluoro-3-(5-{[(2R,3S,7Z)-3-{[4-fluoro-3-(trifluoromethyl)phenyl]carbamoyl}-7-(2,2,2-trifluoroethylidene)bicyclo[2. 2.1]heptan-2-yl]carbamoyl}-6-methoxypyridin-3-yl)benzoic acid] | 34 nM |
| O=C(N[C@@H]1C2CCC(/C2=C/C(F)(F)F)[C@@H]1C(=O)Nc1ccc(F)c(C(F)(F)F)c1)c1cnn2c(C(F)F)cc(Cl)cc12 (some centres unmarked) [Example 13] | 1700 nM |
| COc1cnc(-c2cc(C(=O)O)ccc2F)nc1C(=O)N[C@@H]1C2CCC(/C2=C/C(F)(F)F)[C@@H]1C(=O)Nc1ccc(F)c(C(F)(F)F)c1 (stereo partly drawn) [Example 32, 4-Fluoro-3-(4-{[(2R,3S,7Z)-3-{[4-fluoro-3-(trifluoromethyl)phenyl]carbamoyl}-7-(2,2,2-trifluoroethylidene)bicyclo[2. 2.1]heptan-2-yl]carbamoyl}-5-methoxypyrimidin-2-yl)benzoic acid] | 166 nM |
| O=C(N[C@@H]1C2CCC(/C2=C/C2CC2)[C@@H]1C(=O)Nc1ccc(F)c(C(F)(F)F)c1)c1cncc(C2=NOC3COCC23)c1 (single isomer, unassigned) [Example 62] | 2400 nM |
| COc1ncc(C2=NOC3CC(CO)CC23)cc1C(=O)N[C@@H]1C2CCC(/C2=C/C2CC2)[C@@H]1C(=O)Nc1ccc(F)c(C(F)(F)F)c1 (single isomer, unassigned) [Example 68] | 130 nM |
| O=C(N[C@@H]1C2CCC(/C2=C/C(F)(F)F)[C@@H]1C(=O)Nc1ccc(F)c(C(F)(F)F)c1)c1cc(=O)c2ccccc2o1 (stereo partly drawn) [Example 16, N-[(2R,3S,7Z)-3-{[4-fluoro-3-(trifluoromethyl)phenyl]carbamoyl}-7-(2,2,2-trifluoroethylidene)bicyclo[2. 2.1]heptan-2-yl]-4-oxo-4H-chromene-2-carboxamide] | 3800 nM |

Continued, values first:

| EC50 | Compound |
| --- | --- |
| 230 nM | COCCn1cc(OC)c(C(=O)N[C@@H]2C3CCC(/C3=C/C3CC3)[C@@H]2C(=O)Nc2ccc(F)c(C(F)(F)F)c2)n1 (some centres unmarked) [Example 79] |
| 1.8 nM | COc1ncc(C2=NO[C@@H]3C[C@H](CO)CN23)cc1C(=O)N[C@@H]1C2CCC(/C2=C/C2CC2)[C@@H]1C(=O)N[C@H](C)C1(C)CC1 (stereo partly drawn) [Example 106, N-((1R,2R,3S,4R,Z)-7-(cyclopropyl-methylene)-3-(((R)-1-(1-methylcyclopropyl)ethyl)carbamoyl)bicyclo[2.2.1]heptan-2-yl)-5-((6S,7aR)-6-(hydroxymethyl)-5,6,7,7a-tetrahydropyrrolo [1,2-d][1,2,4]oxadiazo 1-3-yl)-2-methoxynicotinamide] |
| 3.5 nM | COc1ncc(C2=NOC3CC(C(O)C(F)(F)F)CC23)cc1C(=O)N[C@H]1[C@@H](C(=O)NC23CC(C#N)(C2)C3)[C@H]2CC[C@@H]1/C2=C\C1CC1 (stereo partly drawn) [Example 108, N-((1R,2R,3S,4R,Z)-3-((3-cyanobicyclo [1.1.1]pentan-1-yl)carbamoyl)-7-(cyclopropyl-methylene)bicyclo[2.2.1]heptan-2-yl)-2-methoxy-5-(5-(2,2,2-trifluoro-1-hydroxyethyl)-3a,5,6,6a-tetrahydro-4H-cyclopenta[d]isoxazol-3-yl)nicotinamide] |
| 4.3 nM | COc1ncc(C2=NOC3CN(CC(O)C(F)(F)F)CC23)cc1C(=O)N[C@H]1[C@@H](C(=O)Nc2ccc(F)c(C(F)(F)F)c2)[C@H]2CC[C@@H]1/C2=C\C1CC1 (stereo partly drawn) [Example 180, N-[(1R,2R,3S,4R, 7Z)-7-(cyclopropyl-methylidene)-3-{[4-fluoro-3-(trifluoromethyl)phenyl]carbamoyl}bicyclo[2.2.1]heptan-2-yl]-2-methoxy-5-[5-(3,3,3-trifluoro-2-hydroxypropyl)-3aH,4H,5H,6H, 6aH-pyrrolo[3,4-d][1,2]oxazol-3-yl]pyridine-3-carboxamide] |
| 1.5 nM | COc1ncc(C2=NOC3CC(CO)CC23)cc1C(=O)N[C@@H]1C2CCC(/C2=C/C2CC2)[C@@H]1C(=O)Nc1ccc(F)c(C(F)(F)F)c1 (single isomer, unassigned) [Example 69] |
| 3.4 nM | COc1ncc(C2=NOC3COCC23)cc1C(=O)N[C@H]1[C@@H](C(=O)N[C@H](C)C2(C)CC2)[C@H]2CC[C@@H]1/C2=C\c1csc(C(F)F)n1 (stereo partly drawn) [Example 100, N-((1R,2R,3S,4R,Z)-7-((2-(difluoromethyl)thiazol-4-yl)methylene)-3-(((R)-1-(1-methylcyclopropyl)ethyl)carbamoyl)bicyclo[2.2.1]heptan-2-yl)-2-methoxy-5-(3a,4,6,6a-tetrahydrofuro[3,4-d]isoxazol-3-yl)nicotinamide] |
| 3.9 nM | COc1ncc(C2=NOC3CC(C(C)O)CC23)cc1C(=O)N[C@H]1[C@@H](C(=O)Nc2ccc(F)c(C(F)(F)F)c2)[C@H]2CC[C@@H]1/C2=C\C1CC1 (stereo partly drawn) [Example 112, N-((1R,2R,3S,4R,Z)-7-(cyclopropyl-methylene)-3-((4-fluoro-3-(trifluoromethyl)phenyl)carbamoyl)bicyclo[2.2.1]heptan-2-yl)-5-(5-(1-hydroxyethyl)-3a,5,6,6a-tetrahydro-4H-cyclopenta[d]isoxazol-3-yl)-2-methoxynicotinamide] |
| 4.2 nM | COc1ncc(C2=NOC3CC(O)CC23)cc1C(=O)N[C@H]1[C@@H](C(=O)Nc2ccc(F)c(C(F)(F)F)c2)[C@H]2CC[C@@H]1/C2=C\C1CCCC1 (stereo partly drawn) [Example 126, N-((1R,2R,3S,4R,Z)-7-(cyclopentylmethylene)-3-((4-fluoro-3-(trifluoromethyl)phenyl)carbamoyl)bicyclo[2.2.1]heptan-2-yl)-5-(5-hydroxy-3a,5,6,6a-tetrahydro-4H-cyclopenta[d]isoxazol-3-yl)-2-methoxynicotinamide] |
| 2.9 nM | COc1ncc(C2=NOC3CC(CO)CC23)cc1C(=O)N[C@H]1[C@@H](C(=O)Nc2ccc(F)c(C(F)(F)F)c2)[C@H]2CC[C@@H]1/C2=C\CCC(F)(F)F (stereo partly drawn) [Example 139, N-((1R,2R,3S,4R,Z)-3-((4-fluoro-3-(trifluoromethyl)phenyl)carbamoyl)-7-(4,4,4-trifluorobutylidene)bicyclo[2.2.1]heptan-2-yl)-5-(5-(hydroxymethyl)-3a,5,6,6a-tetrahydro-4H-cyclopenta[d]isoxazol-3-yl)-2-methoxynicotinamide] |
| 4.3 nM | COc1ncc(C2=NOC3CC(CO)CC23)cc1C(=O)N[C@H]1[C@@H](C(=O)Nc2ccc(F)c(C(F)(F)F)c2)[C@H]2CC[C@@H]1/C2=C\C1CCCC1 (stereo partly drawn) [Example 172, N-[(1R,2R,3S,4R, 7Z)-7-(cyclopentyl-methylidene)-3-{[4-fluoro-3-(trifluoromethyl)phenyl]carbamoyl}bicyclo[2.2.1]heptan-2-yl]-5-[5-(hydroxymethyl) 3aH,4H,5H,6H, 6aH-cyclopenta[d][1,2]oxazol-3-yl]-2-methoxypyridine-3-carboxamide] |
| 1 nM | COc1ncc(-c2cc([C@H](O)C(F)(F)F)ccc2F)cc1C(=O)N[C@H]1[C@@H](C(=O)Nc2ccc(F)c(C(F)(F)F)c2)[C@H]2CC[C@@H]1/C2=C\C1CCCC1 [Example 163, N-[(1R,2R,3S,4R, 7Z)-7-(cyclopentyl-methylidene)-3-{[4-fluoro-3-(trifluoromethyl)phenyl]carbamoyl}bicyclo[2.2.1]heptan-2-yl]-5-{2-fluoro-5-[(1S)-2,2,2-trifluoro-1-hydroxyethyl]phenyl}-2-methoxypyridine-3-carboxamide] |
| 1.8 nM | COc1ncc(C2=NO[C@@H]3C[C@H](CO)CN23)cc1C(=O)N[C@@H]1C2CCC(/C2=C/C2CC2)[C@@H]1C(=O)Nc1ccc(F)c(C(F)(F)F)c1 (stereo partly drawn) [Example 132, N-((1R,2R,3S,4R,Z)-7-(cyclopropyl-methylene)-3-((4-fluoro-3-(trifluoromethyl)phenyl)carbamoyl)bicyclo[2.2.1]heptan-2-yl)-5-((6S,7aR)-6-(hydroxymethyl)-5,6,7,7a-tetrahydropyrrolo [1,2-d][1,2,4]oxadiazo 1-3-yl)-2-methoxynicotinamide] |
